Results: patent US6794388B2, “Succinic acid salts of 5,7,14-triazatetracyclo[10.3.1.02,11.04,9] -hexadeca-1(11),3,5,7,9-pentaene and pharmaceutical compositions thereof” (Pfizer Inc., priority 2001, dated 2004)
Structures can show the parent of a compound that is named as a salt.

Experiments:
Type in all cases: physicochemical
aqueous solubility = assay: aqueous solubility
Procedure: (§1) Although in general the acid addition salts of 5,8,14-triazatetracyclo[10.3.1.0^2,11.0^4,9]-hexadeca-2(11),3,5,7,9-pentaene are all crystalline, the majority of those salts are so hygroscopic as to render them poor candidates for pharmaceutical formulation use.
(§2) The aqueous solubility of the anhydrous succinate salt has been measured under various conditions: >10 mg/mL in pH 4 buffer; >10 mg/mL in pH 10 buffer; >10 mg/mL in 0.1 N HCl; and >10 mg/mL in 0.1 N NaOH. The solubility of the anhydrous succinate salt has also been measured in various solvents: >10 mg/mL in methanol; 0.1 mg/mL in acetonitrile and <0.01 mg/mL in hexane. The hygroscopicity of the anhydrous succinate salt has also been measured under various conditions: 0.0% moisture gain at 20% Relative Humidity; 0.3% moisture gain at 40% Relative Humidity; 0.6% moisture gain at 60% Relative Humidity; 0.9% moisture gain at 80% Relative Humidity and 1.3% moisture gain at 95% Relative Humidity.

[1] = solubility in various solvents; settings: organic solvent or mixture
Procedure: as §2

[2] = hygroscopicity (moisture gain on exposure to relative humidity in a moisture chamber)
Procedure: as §1, §2

[3] = solid state stability (light, elevated temperature, high humidity challenges); settings: elevated temperatures
From the text: as §1

[4] = native pH in aqueous solution

c1cnc2cc3c(cc2n1)C1CNCC3C1 [anhydrous succinate salt, Anhydrous Succinate Salt of 5,8,14-Triazatetracyclo[10.3.1.0^2,11.0^4,9]-hexadeca-2(11),3,5,7,9-pentaene]
solubility (aqueous solubility; aqueous buffer, in 0.1 N NaOH): > 10000 µg/mL
solubility (aqueous solubility; aqueous buffer, in pH 4 buffer): > 10000 µg/mL
solubility (aqueous solubility; aqueous buffer, in pH 10 buffer): > 10000 µg/mL
solubility (aqueous solubility; simulated gastric fluid, in 0.1 N HCl): > 10000 µg/mL
solubility (aqueous solubility; water): 442000 µg/mL
solubility ([1]; in acetonitrile): 100 µg/mL
solubility ([1]; in hexane): < 10 µg/mL
solubility ([1]; in methanol): > 10000 µg/mL
hygroscopicity, moisture gain ([2]; at 20% Relative Humidity): 0.0%
hygroscopicity, moisture gain ([2]; at 40% Relative Humidity): 0.3%
hygroscopicity, moisture gain ([2]; at 60% Relative Humidity): 0.6%
hygroscopicity, moisture gain ([2]; at 80% Relative Humidity): 0.9%
hygroscopicity ([2]; at 90% relative humidity): approximately 1.97%
hygroscopicity, moisture gain ([2]; at 95% Relative Humidity): 1.3%
hygroscopicity ([2]; exposure to 90% relative humidity in a moisture chamber): approximately 1.97 % wt/wt
solid state stability [3]: excellent solid state stability
native pH in aqueous solution [4]: 4.7
